The values that follow come from patent US20160089321A1, “ANTIPERSPIRANT COMPOSITIONS” (Johnson & Johnson Consumer Inc., priority 2014, published 2016).

The nature of test [1]: Turbidity measurement caused by gel polymerization in alkaline pH (turbidimeter). The test is classed as physicochemical. As to conditions: for Potential to gel polymerize in an alkaline environment: summary of Table 1. As to the method:
In this test, a Hach model 2100 lab turbidimeter was used. One solution containing sodium hydroxide at pH 8.5 was prepared and each compound was tested at 10% concentration after mixing. […] The insoluble gel formed should act as an obstruction at the orifice of the sweat gland, reducing the flow of axillary perspiration.

Test [2] concerns the target T1, Bovine serum albumin (BSA) (Bos taurus, UniProt P02769).
T1 construct: add 4 g of albumin (available from Sigma-Aldrich) from bovine serum (BSA) to 2000 mL of buffer solution; purchased Sigma-Aldrich A7906; host or cells: bovine serum (natural source)
The experiment in a line: In vitro active-protein interaction: BSA precipitation by the Bradford method. The test is classed as biochemical. The note with it: for Precipitation (BSA): screening test, 10% active solution; for Precipitation (BSA) / % BSA Precipitation: buffer pH 4.9; for % BSA Precipitation: dose-response assay. The method, then:
Method 2: In Vitro Study to Evaluate Active-Protein Interaction
Bovine serum albumin (BSA) was used as the reference protein to generate the calibration curve. […] The BSA granular, the BSA solution standard and Bradford reagent were all obtained from Sigma-Aldrich (Catalog Number: A7906, PO834, B6916). The buffer solution was made by adding 875 mL of 0.1 Molar sodium hydroxide (SpecSol) to 125 mL 0.1 Molar potassium dihydrogen phosphate (Merck) and its pH was adjusted to BSA isoelectric point (pH 4.9).
1. Prepare buffer by adding 875 mL of 0.1 Molar sodium hydroxide to 125 mL of 0.1 Molar potassium dihydrogen phosphate, adjusted to pH 4.9. This is the buffer solution used to make the active sample solution, the dose-response curve and the protein solution.
2. To prepare an active sample solution for initial screening, add 5 g of the active material to 50 mL of the buffer solution.
3. To prepare the protein solution, add 4 g of albumin (available from Sigma-Aldrich) from bovine serum (BSA) to 2000 mL of buffer solution.
4. To prepare the reaction solution, add 10 mL of the sample solution (step 2) to 50 mL of the protein solution.
5. To prepare the analytical solution, after filtration through a 0.45 μm membrane, 0.01 mL of reaction solution (step 4) to 3 mL of the Bradford reagent. Measure and record the absorbance at 595 nm. Determine the protein concentration by comparison to the standard curve.

[3] abbreviates: compound at 10% in sodium hydroxide solution pH 8.5.
The mark [4] stands for this setting: mean turbidity, compound at 10% in sodium hydroxide solution pH 8.5.

T1 sequence (P02769 25-607): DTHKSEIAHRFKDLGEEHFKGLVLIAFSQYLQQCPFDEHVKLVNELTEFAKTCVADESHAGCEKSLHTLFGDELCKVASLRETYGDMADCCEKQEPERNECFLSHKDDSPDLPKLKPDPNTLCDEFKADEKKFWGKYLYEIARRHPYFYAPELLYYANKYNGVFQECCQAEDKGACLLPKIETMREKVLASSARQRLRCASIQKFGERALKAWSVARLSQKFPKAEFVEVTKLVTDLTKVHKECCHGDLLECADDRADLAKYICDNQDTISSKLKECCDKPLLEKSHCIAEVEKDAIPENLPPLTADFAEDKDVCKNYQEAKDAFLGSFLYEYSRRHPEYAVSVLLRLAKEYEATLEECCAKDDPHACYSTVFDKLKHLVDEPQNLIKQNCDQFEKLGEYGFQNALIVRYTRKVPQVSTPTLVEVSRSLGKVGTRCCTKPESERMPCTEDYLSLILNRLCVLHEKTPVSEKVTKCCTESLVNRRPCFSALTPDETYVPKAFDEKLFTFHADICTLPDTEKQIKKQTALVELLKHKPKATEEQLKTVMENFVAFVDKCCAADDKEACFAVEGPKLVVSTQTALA

On to `CC(O)C(=O)O.N` (stereo not shown) [Ammonium lactate], for which the “Physical Observation” value in test [1] (setting [3]) is “Liquid”. For the same molecule, the “Turbidity pH 8.5” value in test [1] (setting [4]) is given as 1.2 NTU.

On to `N.N.O=S(=O)(O)O` [Ammonium sulfate], for which, in test [1] (setting [3]), the “Physical Observation” value is “Liquid”. In test [1] (setting [4]), the “Turbidity pH 8.5” value was found to be 1.1 NTU.

With `CC(=O)[O-].CC(=O)[O-].[Ca+2]` [Calcium acetate], in test [1] (pH 8.5), the “Physical Observation” value is on record as “Liquid” and the “Turbidity pH 8.5” value worked out at 20.0 NTU. The “Precipitation (BSA)” value in test [2] is 5%.

Take `CC(O)C(=O)[O-].CC(O)C(=O)[O-].[Ca+2]` (stereo not shown) [Calcium lactate]: the “Physical Observation” value in test [1] (setting [3]) was “Liquid”. Moreover, the “Turbidity pH 8.5” value in test [1] (setting [4]) worked out at 0.9 NTU.

For `[Mg+2].[O-][Cl+2]([O-])[O-].[O-][Cl+2]([O-])[O-]` [Magnesium chlorate], the “Physical Observation” value in test [1] (setting [3]) was “Liquid”. Further, the “Turbidity pH 8.5” value in test [1] (setting [4]) turned out to be 0.4 NTU. In addition, the “Precipitation (BSA)” value in test [2] is 4%.

Turning to `O.O=S(=O)([O-])[O-].[Mg+2]` [Magnesium sulfate 1•H2O], in test [1] (setting [3]), the “Physical Observation” value was “Liquid”. Further, the “Turbidity pH 8.5” value in test [1] (setting [4]) is recorded as 0.9 NTU. Also, the “Precipitation (BSA)” value in test [2] amounted to 11%.

On to `O.O.O.O.O.O=S(=O)([O-])[O-].[Mg+2]` [Magnesium sulfate 5•H2O], for which the “Physical Observation” value in test [1] (setting [3]) is given as “Liquid”. Besides, the “Turbidity pH 8.5” value in test [1] (setting [4]) turned out to be 1.5 NTU. For the same molecule, in test [2], the “Precipitation (BSA)” value is recorded as 10%.

For the molecule `O.O.O.O.O.O.O.O=S(=O)([O-])[O-].[Mg+2]` [Magnesium sulfate 7•H2O], the “Physical Observation” value in test [1] (setting [3]) is reported as “Liquid”. For the same molecule, the “Turbidity pH 8.5” value in test [1] (setting [4]) is listed as 1.5 NTU. In addition, the “Precipitation (BSA)” value in test [2] was 12%.

Consider `O=S(=O)([O-])[O-].[Mg+2]` [Magnesium sulfate Andros], for which, in test [1] (setting [3]), the “Physical Observation” value was “Liquid”. Moreover, the “Turbidity pH 8.5” value in test [1] (setting [4]) is recorded as 0.5 NTU. Also, in test [2], the “Precipitation (BSA)” value stood at 8%.

For `CC(=O)[O-].[Na+]` [Sodium acetate], in test [1] (pH 8.5), the “Physical Observation” value was “Liquid” and the “Turbidity pH 8.5” value is 0.9 NTU. In addition, the “Precipitation (BSA)” value in test [2] was found to be 5%.

For `CC(O)C(=O)[O-].[Na+]` (stereo not shown) [Sodium lactate], the “Physical Observation” value in test [1] (setting [3]) is given as “Liquid”. For the same molecule, the “Turbidity pH 8.5” value in test [1] (setting [4]) was 0.5 NTU.

On to `O=S(=O)([O-])[O-].[Na+].[Na+]` [Sodium sulfate], for which, in test [1] (pH 8.5), the “Physical Observation” value is “Liquid” and the “Turbidity pH 8.5” value stood at 1.8 NTU.

Take `CC(O)C(=O)[O-].CC(O)C(=O)[O-].[Zn+2]` (stereo not shown) [Zinc Lactate (food), zinc lactate]: the “Physical Observation” value in test [1] (setting [3]) is given as “Gel Polymerization”. For the same molecule, the “Turbidity pH 8.5” value in test [1] (setting [4]) is on record as 525.5 NTU. Also, in test [1], the “Potential to gel polymerize in an alkaline environment” value is “high potential to gel polymerize”.

Regarding `CC(O)C(=O)[O-].CC(O)C(=O)[O-].[Zn+2]` (stereo not shown) [Zinc Lactate (pharma), zinc lactate], the “Physical Observation” value in test [1] (setting [3]) is “Gel Polymerization”. In addition, the “Turbidity pH 8.5” value in test [1] (setting [4]) worked out at 538.0 NTU. Also, the “Potential to gel polymerize in an alkaline environment” value in test [1] is “high potential to gel polymerize”.

Turning to `O=S(=O)([O-])c1ccc(O)cc1.O=S(=O)([O-])c1ccc(O)cc1.[Zn+2]` [Zinc Phenolsulfonate, zinc phenolsulfonate], the “Physical Observation” value in test [1] (setting [3]) is listed as “Liquid”. Also, the “Turbidity pH 8.5” value in test [1] (setting [4]) came to 1.8 NTU. The “% BSA Precipitation” value in test [2] (1% solution) is 5%; in test [2] (5% solution), −1%; in test [2] (10% solution), 21%; in test [2] (15% solution) it was 31%. Also, the “Precipitation (BSA)” value in test [2] was 18%. In addition, in test [2] (summary of Tables 2 and 3), the “Potential to be clogging agents (protein precipitation)” value is on record as “demonstrated potential to be clogging agents”.

Consider “Aluminum chlorohydrate [reference compound]”, for which the “% BSA Precipitation” value in test [2] (1% solution) is reported as 24%; in test [2] (5% solution), 56%; in test [2] (10% solution), 79%; in test [2] (15% solution), 95%.

In the case of “aluminum sesquichlorohydrate [Aluminium Sesquichlorohydrate, reference compound]”, the “Physical Observation” value in test [1] (setting [3]) is “Gel Polymerization”. Further, the “Turbidity pH 8.5” value in test [1] (setting [4]) stood at 593.0 NTU. Also, the “Precipitation (BSA)” value in test [2] stood at 100%.
